From patent US7897765B2, “Therapeutic compounds and uses thereof” (Elixir Pharmaceuticals, Inc., priority 2003, dated 2011)

Target: GHS-R (Homo sapiens, UniProt Q92847)
Experiment: cell based assay of GHS-R antagonist/agonist activity
Design: key: A refers to a compound having antagonist activity with Ki<100 nM in a cell based assay; B refers to a compound having agonist activity with EC50<100 nM in a cell based assay; C refers to a compound having antagonist activity of Ki>100 nM and <1500 nM in a cell based assay; D refers to a compound having antagonist activity with Ki, <100 nM and agonist activity with EC50<100 nM in a cell-based assay; E refers to other exemplary compounds
Details: GHS-R antagonist Ki and/or agonist EC50 class
Protocol: Cell-Based Activity Assays. For example, the ability of the compound to modulate accumulation of a second messenger signaling component downstream of GHS-R can be evaluated. For example, inositol phosphates (IP), as a result of Gq signaling in a mammalian cell, e.g., a Cos-7 cells. Other tissue culture cells, Xenopus oocytes, and primary cells can also be used.
Phosphatidylinositol turnover assay. One day after transfection COS-7 cells are incubated for 24 hours with 5 μCi of [^3H]-myo-inositol in 1 ml medium supplemented with 10% fetal calf serum, 2 mM glutamine and 0.01 mg/ml gentamicin per well. Cells are then washed twice in buffer, 20 mM HEPES, pH 7.4, supplemented with 140 mM NaCl, 5 mM KCl, 1 mM MgSO4, 1 mM CaCl2, mM glucose, 0.05% (w/v) bovine serum; and incubated in 0.5 ml buffer supplemented with 10 mM LiCl at 37° C. for 30 min. For some assays, it is also useful to incubate the cells with adenosine deaminase ADA (200 U/mg, Boehringer Mannheim, Germany) for 30 min in a concentration of 1 U/ml.
After incubation with the compound of interest for 45 min at 37° C., cells are extracted with 10% ice-cold perchloric acid and placed on ice for 30 min. The resulting supernatants are neutralized with KOH in HEPES buffer, and [^3H]-inositol phosphate is purified on Bio-Rad AG 1-X8 anion exchange resin as described. Assays can be run in duplicate, triplicate, etc.
Other second messenger assays. Another second messenger that can be evaluated is Ca^2+. Ca^2+ mobilization can be evaluated using a calcium sensitive detector, such as aequorin protein or a dye, e.g., FURA-2. In an exemplary assay, calcium mobilization is evaluated in a recombinant cell that expresses GHS-R and aequorin.
Gene expression assay. HEK293 cells (30 000 cells/well) seeded in 96-well plates are transiently transfected with a mixture of pFA2-CREB and pFR-Luc reporter plasmid (PathDetect™ CREB trans-Reporting System, Stratagene) and nucleic acid encoding GHS. One day after transfection, cells are treated with the compound of interest in an assay volume of 100 μl medium for 5 hrs. After treatment, cells are cultured in low serum (2.5%). After the incubation period, the assay is ended by washing the cells twice with PBS and adding 100 μl luciferase assay reagent (LucLite™, Packard Bioscience). Luminescence is measured (e.g., as relative light units (RLU)) using in a luminometer such as the TopCounter™ (Packard Bioscience) for 5 sec.
IC50 and EC50 values can be determined by nonlinear regression, e.g., using the Prism 3.0 software (GraphPad Software, San Diego).

Chain of GHS-R (Q92847 whole entry, species assumed): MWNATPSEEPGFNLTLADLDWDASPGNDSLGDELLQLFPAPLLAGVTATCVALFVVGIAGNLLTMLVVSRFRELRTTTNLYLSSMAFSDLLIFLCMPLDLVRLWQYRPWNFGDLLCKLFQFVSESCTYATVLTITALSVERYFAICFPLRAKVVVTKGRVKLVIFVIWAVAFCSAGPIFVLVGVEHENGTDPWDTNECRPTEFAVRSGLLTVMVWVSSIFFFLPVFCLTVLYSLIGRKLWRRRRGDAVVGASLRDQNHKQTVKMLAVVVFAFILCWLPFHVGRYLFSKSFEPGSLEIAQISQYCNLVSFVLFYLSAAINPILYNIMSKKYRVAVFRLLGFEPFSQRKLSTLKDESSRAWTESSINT

SMILES	Activity
CC(C)(C)OC(=O)N[C@H](COCc1ccccc1)C(=O)N1CCC2(C=Cc3ccccc32)CC1 [Compound 30]	C (C refers to a compound having antagonist activity of Ki>100 nM and <1500 nM in a cell based assay)
CN1C2CCC1CC(S(=O)(=O)N[C@H](COCc1ccccc1)C(=O)N1CCC3(CC1)CN(S(C)(=O)=O)c1ccccc13)C2 (stereo partly shown) [Compound 152]	C (C refers to a compound having antagonist activity of Ki>100 nM and <1500 nM in a cell based assay)
CC(C)(C)C(=O)N[C@H](COCc1ccccc1)C(=O)N1CCC2(CC1)CN(S(C)(=O)=O)c1ccccc12 [Compound 44]	C (C refers to a compound having antagonist activity of Ki>100 nM and <1500 nM in a cell based assay)
CS(=O)(=O)N1CC2(CCN(C(=O)[C@@H](COCc3ccccc3)NC(=O)C3=NCCN3)CC2)c2ccccc21 [Compound 80]	E
CCN(C)CCS(=O)(=O)N[C@H](COCc1ccccc1)C(=O)N1CCC2(CC1)CN(S(C)(=O)=O)c1ccccc12 [Compound 35]	C (C refers to a compound having antagonist activity of Ki>100 nM and <1500 nM in a cell based assay)
COC(=O)CC(=O)N1CC2(CCN(C(=O)[C@@H](COCc3ccccc3)NC(=O)OC(C)(C)C)CC2)c2ccccc21 [Compound 60]	E
Cc1ccc(CSC[C@H](NC(=O)C2CCN(C)CC2)C(=O)N2CCC3(CC2)CN(S(C)(=O)=O)c2ccccc23)cc1 [Compound 140]	E
CS(=O)(=O)N1CC2(CCN(C(=O)[C@@H](COCc3ccccc3)NC(=O)C3CCCNC3)CC2)c2ccccc21 (stereo partly shown) [Compound 4]	D (D refers to a compound having antagonist activity with Ki, <100 nM and agonist activity with EC50<100 nM in a cell-based assay)
CN(C)CCCS(=O)(=O)N[C@H](COCc1ccccc1)C(=O)N1CCC2(CC1)CN(S(C)(=O)=O)c1ccccc12 [Compound 156]	E
CN(C)CC(=O)N[C@H](COCc1ccccc1)C(=O)N1CCC2(CC1)CN(S(=O)(=O)CC(F)(F)F)c1ccccc12 [Compound 47]	C (C refers to a compound having antagonist activity of Ki>100 nM and <1500 nM in a cell based assay)
CCN1CCC[C@@H]1CNC(=O)N[C@H](COCc1ccccc1)C(=O)N1CCC2(CC1)CN(S(C)(=O)=O)c1ccccc12 [Compound 96]	E
CN1CCC(C(=O)N[C@H](CC(=O)N2CCC3(CC2)CN(S(C)(=O)=O)c2ccccc23)Cc2c[nH]c3ccccc23)CC1 [Compound 141]	E
CC(C)N1CC=C(C(=O)N[C@H](COCc2ccccc2)C(=O)N2CCC3(CC2)CN(S(C)(=O)=O)c2ccccc23)CC1.Cl [Compound 49]	C (C refers to a compound having antagonist activity of Ki>100 nM and <1500 nM in a cell based assay)
CCN(CC)CCCS(=O)(=O)N[C@H](CCc1ccccc1)C(=O)N1CCC2(CC1)CN(S(C)(=O)=O)c1ccccc12 [Compound 163]	A (A refers to a compound having antagonist activity with Ki<100 nM in a cell based assay)
C[C@H](N)C(=O)N[C@H](COCc1ccccc1)C(=O)N1CCC2(CC1)CN(S(C)(=O)=O)c1ccccc12 [Compound 78]	E
COCC(=O)N1CC2(CCN(C(=O)[C@@H](COCc3ccccc3)NC(=O)OC(C)(C)C)CC2)c2ccccc21 [Compound 57]	E
CC(=O)N(C1CCN(C)CC1)[C@H](COCc1ccccc1)C(=O)N1CCC2(CC1)CN(S(C)(=O)=O)c1ccccc12 [Compound 88]	E
CC(C)(C)OC(=O)N[C@H](COCc1ccccc1)C(=O)N1CCC2(CC1)CN(S(C)(=O)=O)c1ccccc12 [Compound 9]	A (A refers to a compound having antagonist activity with Ki<100 nM in a cell based assay)
CC(C)N1CCC(C(=O)N[C@H](COCc2ccccc2)C(=O)N2CCC3(CC2)CN(S(C)(=O)=O)c2ccccc23)CC1 [Compound 110]	E
CN1CC2(CCN(C(=O)[C@@H](COCc3ccccc3)NC(=O)OC(C)(C)C)CC2)c2ccccc21 [Compound 48]	C (C refers to a compound having antagonist activity of Ki>100 nM and <1500 nM in a cell based assay)

SMILES	Activity
COCCCS(=O)(=O)N[C@H](COCc1ccccc1)C(=O)N1CCC2(CC1)CN(S(C)(=O)=O)c1ccccc12 [Compound 161]	E
CC(C)N(C)CCS(=O)(=O)N[C@H](COCc1ccccc1)C(=O)N1CCC2(CC1)CN(S(C)(=O)=O)c1ccccc12 [Compound 21]	C (C refers to a compound having antagonist activity of Ki>100 nM and <1500 nM in a cell based assay)
CN(C)CC(=O)N[C@H](Cc1ccccc1)C(=O)N1CCC2(CC1)CN(S(C)(=O)=O)c1ccccc12 [Compound 123]	E
CS(=O)(=O)N1CC2(CCN(C(=O)[C@@H](COCc3ccccc3)NC(=S)NCc3ccco3)CC2)c2ccccc21 [Compound 87]	E
CN1CCC[C@H](C(=O)N[C@H](COCc2ccccc2)C(=O)N2CCC3(CC2)CN(S(C)(=O)=O)c2ccccc23)C1 [Compound 116]	E
C[C@@H](OCc1ccccc1)C(NC(=O)C1CCN(C)CC1)C(=O)N1CCC2(CC1)CN(S(C)(=O)=O)c1ccccc12 (stereo partly shown) [Compound 137]	E
CN1CCC[C@@H]1C(=O)N[C@H](COCc1ccccc1)C(=O)N1CCC2(CC1)CN(S(C)(=O)=O)c1ccccc12 [Compound 32]	C (C refers to a compound having antagonist activity of Ki>100 nM and <1500 nM in a cell based assay)
COc1cccc(C(=O)N2CC3(CCN(C(=O)[C@@H](COCc4ccccc4)NC(=O)OC(C)(C)C)CC3)c3ccccc32)c1 [Compound 58]	E
CCN(CC)CC(=O)N[C@H](COCc1ccccc1)C(=O)N1CCC2(CC1)CN(S(C)(=O)=O)c1ccccc12 [Compound 90]	E
CN[C@@H](C)C(=O)N[C@H](COCc1ccccc1)C(=O)N1CCC2(CC1)CN(S(C)(=O)=O)c1ccccc12 [Compound 129]	B (B refers to a compound having agonist activity with EC50<100 nM in a cell based assay)
CN1CCN(CCS(=O)(=O)N[C@H](COCc2ccccc2)C(=O)N2CCC3(CC2)CN(S(C)(=O)=O)c2ccccc23)CC1 [Compound 46]	C (C refers to a compound having antagonist activity of Ki>100 nM and <1500 nM in a cell based assay)
COc1cccc(NC(=O)N2CC3(CCN(C(=O)[C@@H](COCc4ccccc4)NC(=O)OC(C)(C)C)CC3)c3ccccc32)c1 [Compound 65]	E
CN(C)Cc1cccc(C(=O)N[C@H](COCc2ccccc2)C(=O)N2CCC3(CC2)CN(S(C)(=O)=O)c2ccccc23)c1 [Compound 6]	A (A refers to a compound having antagonist activity with Ki<100 nM in a cell based assay)
CS(=O)(=O)N1CC2(CCN(C(=O)[C@@H](COCc3ccccc3)NC(=O)[C@@H]3C=CCN3)CC2)c2ccccc21 [Compound 18]	C (C refers to a compound having antagonist activity of Ki>100 nM and <1500 nM in a cell based assay)
CN(C)CC(=O)N[C@H](COCc1ccccc1)C(=O)N1CCC2(CC1)CNc1ccccc12 [Compound 68]	E
CS(=O)(=O)N1CC2(CCN(C(=O)[C@@H](COCc3ccccc3)NC(=O)C3CCNCC3)CC2)c2ccccc21 [Compound 128]	B (B refers to a compound having agonist activity with EC50<100 nM in a cell based assay)
CN(C)C1(C(=O)N[C@H](COCc2ccccc2)C(=O)N2CCC3(CC2)CN(S(C)(=O)=O)c2ccccc23)CCCCC1 [Compound 118]	E
CS(=O)(=O)N1CC2(CCN(C(=O)[C@@H](COCc3ccccc3)NC(=O)C3=CCNCC3)CC2)c2ccccc21 [Compound 16]	C (C refers to a compound having antagonist activity of Ki>100 nM and <1500 nM in a cell based assay)
CC(C)N1CCC=C(C(=O)N[C@H](COCc2ccccc2)C(=O)N2CCC3(CC2)CN(S(C)(=O)=O)c2ccccc23)C1 [Compound 12]	A (A refers to a compound having antagonist activity with Ki<100 nM in a cell based assay)
CN1CCC(C(=O)N[C@H](Cc2ccccc2)C(=O)N2CCC3(CC2)CN(S(C)(=O)=O)c2ccccc23)CC1 [Compound 45]	C (C refers to a compound having antagonist activity of Ki>100 nM and <1500 nM in a cell based assay)
